From ChEMBL document CHEMBL1201862, “PubChem BioAssay data set” (2004) come the findings set out here.

Each structure is given as a SMILES string. Activity calls are given as the source filed them.

In test [1] the target is T1, Rac GTPase-activating protein 1 (Homo sapiens, UniProt Q9H0H5).
T1 sequence (Q9H0H5 whole entry): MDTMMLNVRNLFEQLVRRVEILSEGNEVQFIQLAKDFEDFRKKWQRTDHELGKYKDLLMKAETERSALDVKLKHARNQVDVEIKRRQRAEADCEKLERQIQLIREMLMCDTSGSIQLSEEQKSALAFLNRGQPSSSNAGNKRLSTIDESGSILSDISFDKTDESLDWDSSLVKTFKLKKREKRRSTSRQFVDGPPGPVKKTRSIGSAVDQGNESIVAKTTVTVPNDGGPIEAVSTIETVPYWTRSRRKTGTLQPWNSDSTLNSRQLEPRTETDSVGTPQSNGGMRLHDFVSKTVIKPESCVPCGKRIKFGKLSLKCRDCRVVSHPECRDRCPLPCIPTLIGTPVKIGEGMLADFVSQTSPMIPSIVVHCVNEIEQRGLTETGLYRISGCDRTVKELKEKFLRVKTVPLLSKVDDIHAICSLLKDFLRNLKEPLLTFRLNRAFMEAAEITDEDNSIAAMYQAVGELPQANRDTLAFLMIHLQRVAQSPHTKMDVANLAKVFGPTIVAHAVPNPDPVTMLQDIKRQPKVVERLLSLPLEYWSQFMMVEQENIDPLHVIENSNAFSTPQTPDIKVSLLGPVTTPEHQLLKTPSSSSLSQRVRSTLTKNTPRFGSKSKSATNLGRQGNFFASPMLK
As to the kind of experiment: MgcRacGAP GTPase-activating activity inhibitors, confirmation, biochemical, ADP Hunter fluorescence, primary and confirmatory (AID 624330). In kind it is functional.

The target in another test is T2, Coagulation factor XII (Homo sapiens, UniProt P00748).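 Note: activated factor XIIa alpha cleaving a fluorogenic AMC peptide substrate; inhibitor potency from loss of enzyme activity.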
T2 sequence (P00748 whole entry): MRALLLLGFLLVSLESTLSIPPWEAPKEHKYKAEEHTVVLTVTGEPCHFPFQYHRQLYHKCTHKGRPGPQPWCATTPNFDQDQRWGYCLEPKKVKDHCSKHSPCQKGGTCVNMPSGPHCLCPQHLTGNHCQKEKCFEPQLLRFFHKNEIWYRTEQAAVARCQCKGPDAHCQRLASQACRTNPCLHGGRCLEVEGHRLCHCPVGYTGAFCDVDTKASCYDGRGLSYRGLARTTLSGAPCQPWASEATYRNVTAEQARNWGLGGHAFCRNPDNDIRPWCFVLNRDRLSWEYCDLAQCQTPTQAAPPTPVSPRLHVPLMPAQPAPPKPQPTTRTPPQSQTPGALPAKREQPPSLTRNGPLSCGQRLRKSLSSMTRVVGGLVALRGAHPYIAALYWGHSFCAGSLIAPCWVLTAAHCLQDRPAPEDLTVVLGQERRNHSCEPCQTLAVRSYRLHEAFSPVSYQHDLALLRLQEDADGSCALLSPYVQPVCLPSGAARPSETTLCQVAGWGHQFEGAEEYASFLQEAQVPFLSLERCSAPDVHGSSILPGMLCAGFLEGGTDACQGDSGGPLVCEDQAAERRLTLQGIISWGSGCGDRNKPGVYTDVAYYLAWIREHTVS
In kind it is functional.

In test [2] the target is Peroxisome proliferator-activated receptor gamma/Nuclear receptor coactivator 3 (Homo sapiens, UniProt P37231). As to the kind of experiment: TR-FRET dose response biochemical High Throughput Screening assay for agonists of the steroid receptor coactivator 3 (SRC-3) recruitment by the peroxisome proliferator-activated receptor gamma (PPAR gamma): non-selective agonists. [Related pubchem assays: 1301 (Confirmation screen.), 1048 (Primary screen.)]. In kind it is functional.

The target in test [3] is Peroxisome proliferator-activated receptor gamma/Nuclear receptor coactivator 1 (Homo sapiens, UniProt P37231). As to the kind of experiment: TR-FRET dose response biochemical High Throughput Screening assay for agonists of the steroid receptor coactivator 1 (SRC-1) recruitment by the peroxisome proliferator-activated receptor gamma (PPAR gamma): non-selective agonists. [Related pubchem assays (depositor defined):AID1300, AID1808, AID504735, AID631]. It counts as protein assay.
Peroxisome proliferator-activated receptor gamma/Nuclear receptor coactivator 1, sequence (P37231 whole entry): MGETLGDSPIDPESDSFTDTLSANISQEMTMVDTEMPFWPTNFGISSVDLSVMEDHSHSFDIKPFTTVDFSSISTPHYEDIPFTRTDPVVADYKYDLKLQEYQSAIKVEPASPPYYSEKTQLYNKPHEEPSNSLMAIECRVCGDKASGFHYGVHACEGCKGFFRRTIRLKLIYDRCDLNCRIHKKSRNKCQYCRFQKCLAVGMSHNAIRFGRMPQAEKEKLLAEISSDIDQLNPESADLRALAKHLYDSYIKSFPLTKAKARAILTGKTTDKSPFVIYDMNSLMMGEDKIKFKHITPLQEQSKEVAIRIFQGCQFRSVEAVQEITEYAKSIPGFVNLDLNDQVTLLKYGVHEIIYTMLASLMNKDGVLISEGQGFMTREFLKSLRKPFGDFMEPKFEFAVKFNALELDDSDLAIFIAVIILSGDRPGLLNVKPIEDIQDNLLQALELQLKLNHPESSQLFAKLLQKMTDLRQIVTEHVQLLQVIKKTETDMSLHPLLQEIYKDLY
Peroxisome proliferator-activated receptor gamma/Nuclear receptor coactivator 1, sequence (Q15788 whole entry, further chain): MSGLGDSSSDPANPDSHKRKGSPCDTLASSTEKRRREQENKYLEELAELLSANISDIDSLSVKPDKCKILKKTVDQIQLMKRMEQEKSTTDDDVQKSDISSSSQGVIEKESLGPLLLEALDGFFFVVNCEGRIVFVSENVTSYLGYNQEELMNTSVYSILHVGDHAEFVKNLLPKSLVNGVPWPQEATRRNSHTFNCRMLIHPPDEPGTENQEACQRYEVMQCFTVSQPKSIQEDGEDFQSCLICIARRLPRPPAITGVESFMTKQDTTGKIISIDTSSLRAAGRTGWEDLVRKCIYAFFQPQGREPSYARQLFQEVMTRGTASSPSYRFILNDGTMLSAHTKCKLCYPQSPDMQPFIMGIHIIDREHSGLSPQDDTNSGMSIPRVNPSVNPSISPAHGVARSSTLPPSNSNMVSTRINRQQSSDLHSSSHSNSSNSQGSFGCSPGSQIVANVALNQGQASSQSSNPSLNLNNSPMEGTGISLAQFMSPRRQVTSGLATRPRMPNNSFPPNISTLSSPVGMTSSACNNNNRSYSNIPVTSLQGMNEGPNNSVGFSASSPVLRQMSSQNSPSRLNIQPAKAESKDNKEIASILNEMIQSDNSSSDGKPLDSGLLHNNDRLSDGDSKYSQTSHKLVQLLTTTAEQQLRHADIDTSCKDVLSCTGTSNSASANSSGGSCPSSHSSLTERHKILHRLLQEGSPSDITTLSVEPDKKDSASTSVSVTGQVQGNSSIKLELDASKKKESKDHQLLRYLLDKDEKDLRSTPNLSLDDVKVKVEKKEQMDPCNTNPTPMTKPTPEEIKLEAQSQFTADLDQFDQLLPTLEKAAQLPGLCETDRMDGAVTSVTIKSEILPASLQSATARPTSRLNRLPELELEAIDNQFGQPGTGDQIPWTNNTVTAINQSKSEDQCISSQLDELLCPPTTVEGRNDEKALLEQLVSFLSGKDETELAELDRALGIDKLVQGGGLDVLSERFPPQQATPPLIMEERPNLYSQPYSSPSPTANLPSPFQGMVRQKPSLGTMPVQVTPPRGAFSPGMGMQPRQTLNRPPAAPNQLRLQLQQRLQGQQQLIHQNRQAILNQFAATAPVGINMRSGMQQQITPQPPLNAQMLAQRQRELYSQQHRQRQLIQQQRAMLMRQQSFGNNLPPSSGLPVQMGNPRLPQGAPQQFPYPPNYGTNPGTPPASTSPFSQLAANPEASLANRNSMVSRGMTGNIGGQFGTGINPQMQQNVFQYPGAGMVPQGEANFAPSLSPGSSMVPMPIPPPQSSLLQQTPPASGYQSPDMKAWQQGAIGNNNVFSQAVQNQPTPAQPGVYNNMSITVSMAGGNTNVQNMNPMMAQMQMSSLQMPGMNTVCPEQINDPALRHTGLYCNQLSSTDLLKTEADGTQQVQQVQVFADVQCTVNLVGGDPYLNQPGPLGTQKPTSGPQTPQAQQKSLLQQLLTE

For test [4], the target named is Peroxisome proliferator-activated receptor gamma/Nuclear receptor coactivator 2 (Homo sapiens, UniProt P37231). Put plainly: TR-FRET dose response biochemical High Throughput Screening assay for agonists of the steroid receptor coactivator 2 (SRC-2) recruitment by the peroxisome proliferator-activated receptor gamma (PPAR gamma): non-selective agonists. [Related pubchem assays: 1297, 1032 ]. It counts as functional.
Peroxisome proliferator-activated receptor gamma/Nuclear receptor coactivator 2, sequence (P37231 whole entry): as the sequence (P37231 whole entry) above
Peroxisome proliferator-activated receptor gamma/Nuclear receptor coactivator 2, sequence (Q15596 whole entry, further chain): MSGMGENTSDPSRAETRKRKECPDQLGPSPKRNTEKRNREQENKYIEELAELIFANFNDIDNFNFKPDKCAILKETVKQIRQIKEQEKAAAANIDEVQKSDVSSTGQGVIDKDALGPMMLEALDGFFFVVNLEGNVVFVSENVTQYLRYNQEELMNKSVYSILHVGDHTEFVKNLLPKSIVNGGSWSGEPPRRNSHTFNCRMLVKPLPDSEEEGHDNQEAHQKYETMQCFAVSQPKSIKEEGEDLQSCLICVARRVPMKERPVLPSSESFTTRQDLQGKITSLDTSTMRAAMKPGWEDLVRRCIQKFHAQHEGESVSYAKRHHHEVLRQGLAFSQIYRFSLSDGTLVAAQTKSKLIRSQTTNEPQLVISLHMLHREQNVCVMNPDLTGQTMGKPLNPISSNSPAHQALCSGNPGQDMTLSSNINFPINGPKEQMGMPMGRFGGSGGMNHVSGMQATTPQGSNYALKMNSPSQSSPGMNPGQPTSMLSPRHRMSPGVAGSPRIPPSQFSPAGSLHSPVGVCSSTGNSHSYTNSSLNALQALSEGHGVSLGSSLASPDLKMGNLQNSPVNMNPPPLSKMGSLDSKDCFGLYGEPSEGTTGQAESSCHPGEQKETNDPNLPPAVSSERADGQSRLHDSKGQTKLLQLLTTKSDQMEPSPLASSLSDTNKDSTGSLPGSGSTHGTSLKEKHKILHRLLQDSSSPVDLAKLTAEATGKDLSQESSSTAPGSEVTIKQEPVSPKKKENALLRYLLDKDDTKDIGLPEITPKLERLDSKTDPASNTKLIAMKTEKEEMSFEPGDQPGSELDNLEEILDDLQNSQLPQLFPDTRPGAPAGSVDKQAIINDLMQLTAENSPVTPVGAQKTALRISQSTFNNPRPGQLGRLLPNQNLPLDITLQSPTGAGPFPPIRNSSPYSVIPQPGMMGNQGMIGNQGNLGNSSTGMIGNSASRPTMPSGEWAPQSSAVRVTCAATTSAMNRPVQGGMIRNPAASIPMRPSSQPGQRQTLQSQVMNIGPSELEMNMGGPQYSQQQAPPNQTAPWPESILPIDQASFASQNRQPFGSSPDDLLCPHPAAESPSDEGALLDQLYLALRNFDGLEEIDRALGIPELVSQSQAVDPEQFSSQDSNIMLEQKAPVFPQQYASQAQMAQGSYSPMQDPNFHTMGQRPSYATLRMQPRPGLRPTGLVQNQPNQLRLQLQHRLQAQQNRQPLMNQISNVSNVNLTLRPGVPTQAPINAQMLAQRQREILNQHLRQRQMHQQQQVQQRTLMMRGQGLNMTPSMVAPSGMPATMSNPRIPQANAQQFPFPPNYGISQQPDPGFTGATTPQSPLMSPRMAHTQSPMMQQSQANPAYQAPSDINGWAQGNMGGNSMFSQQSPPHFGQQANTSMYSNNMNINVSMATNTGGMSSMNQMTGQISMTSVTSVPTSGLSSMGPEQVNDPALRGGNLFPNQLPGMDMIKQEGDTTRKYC

In test [5] the target is Glucose-6-phosphate 1-dehydrogenase (Homo sapiens, UniProt P11413). As to the kind of experiment: human G6PD enzyme inhibitors, dose response, selectivity assay for P. falciparum G6PD inhibitor project, biochemical, fluorescence (AID 504792). In kind it is functional.
Glucose-6-phosphate 1-dehydrogenase, sequence (P11413 whole entry): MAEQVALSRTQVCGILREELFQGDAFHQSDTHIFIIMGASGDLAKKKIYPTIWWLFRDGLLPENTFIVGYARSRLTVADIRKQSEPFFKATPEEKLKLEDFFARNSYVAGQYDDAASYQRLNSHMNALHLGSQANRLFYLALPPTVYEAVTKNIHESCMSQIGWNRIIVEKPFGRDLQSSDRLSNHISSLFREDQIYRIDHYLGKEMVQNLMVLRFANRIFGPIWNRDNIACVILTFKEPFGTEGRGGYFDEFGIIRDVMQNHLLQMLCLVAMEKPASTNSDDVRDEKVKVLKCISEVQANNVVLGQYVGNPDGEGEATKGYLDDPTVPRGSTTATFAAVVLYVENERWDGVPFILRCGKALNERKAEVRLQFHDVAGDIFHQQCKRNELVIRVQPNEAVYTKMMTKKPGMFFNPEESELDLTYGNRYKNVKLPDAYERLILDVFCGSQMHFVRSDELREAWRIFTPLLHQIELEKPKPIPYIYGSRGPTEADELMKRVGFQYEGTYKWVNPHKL
Test [6] has as its target FAD-linked sulfhydryl oxidase ALR (Homo sapiens, UniProt P55789). Put plainly: inhibitors of human ALR sulfhydryl oxidase, dose response, biochemical, H2O2 detection, luminescence, cherry-pick (AID 493248).
The target of another test is T3, Protein RecA (Mycobacterium tuberculosis, UniProt P9WHJ3).
T3 sequence (P9WHJ3 whole entry): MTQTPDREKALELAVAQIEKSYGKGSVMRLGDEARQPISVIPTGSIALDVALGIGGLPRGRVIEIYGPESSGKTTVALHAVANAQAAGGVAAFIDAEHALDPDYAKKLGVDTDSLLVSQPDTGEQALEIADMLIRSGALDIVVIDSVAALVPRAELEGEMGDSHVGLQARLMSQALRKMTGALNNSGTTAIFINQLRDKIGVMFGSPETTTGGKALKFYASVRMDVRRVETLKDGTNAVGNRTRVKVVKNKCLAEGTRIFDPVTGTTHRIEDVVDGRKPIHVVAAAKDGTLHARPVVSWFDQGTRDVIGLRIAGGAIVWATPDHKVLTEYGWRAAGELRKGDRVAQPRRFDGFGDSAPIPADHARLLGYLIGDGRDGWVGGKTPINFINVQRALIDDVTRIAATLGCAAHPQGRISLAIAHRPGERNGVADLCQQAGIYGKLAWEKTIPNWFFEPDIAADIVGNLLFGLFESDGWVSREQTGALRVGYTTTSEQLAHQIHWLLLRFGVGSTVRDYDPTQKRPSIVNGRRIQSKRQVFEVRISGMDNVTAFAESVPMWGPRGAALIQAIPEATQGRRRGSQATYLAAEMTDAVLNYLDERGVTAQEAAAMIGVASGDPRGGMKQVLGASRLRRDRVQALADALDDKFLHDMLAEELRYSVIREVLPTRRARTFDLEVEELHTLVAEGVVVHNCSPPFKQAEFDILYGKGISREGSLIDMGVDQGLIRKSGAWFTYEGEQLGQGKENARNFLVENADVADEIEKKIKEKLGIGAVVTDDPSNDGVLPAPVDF
As to the kind of experiment: Fluorescence Cell-Free Homogeneous Dose Retest to Identify Inhibitors of RecA-Intein Splicing Activity. [Related pubchem assays (depositor defined):AID2097, AID2223, AID489010, AID492950]. It counts as functional.

The nature of test [7]: HepG2 cell cytotoxicity, dose response, cytotoxicity control for Shn3 inhibitor project, CellTiter-Glo, cherry-picked (AID 624134). It counts as functional, cell-based.
Test [8] concerns the target T4, Replicative DNA helicase DnaB (Mycobacterium tuberculosis, UniProt P9WMR3).
T4 sequence (P9WMR3 whole entry): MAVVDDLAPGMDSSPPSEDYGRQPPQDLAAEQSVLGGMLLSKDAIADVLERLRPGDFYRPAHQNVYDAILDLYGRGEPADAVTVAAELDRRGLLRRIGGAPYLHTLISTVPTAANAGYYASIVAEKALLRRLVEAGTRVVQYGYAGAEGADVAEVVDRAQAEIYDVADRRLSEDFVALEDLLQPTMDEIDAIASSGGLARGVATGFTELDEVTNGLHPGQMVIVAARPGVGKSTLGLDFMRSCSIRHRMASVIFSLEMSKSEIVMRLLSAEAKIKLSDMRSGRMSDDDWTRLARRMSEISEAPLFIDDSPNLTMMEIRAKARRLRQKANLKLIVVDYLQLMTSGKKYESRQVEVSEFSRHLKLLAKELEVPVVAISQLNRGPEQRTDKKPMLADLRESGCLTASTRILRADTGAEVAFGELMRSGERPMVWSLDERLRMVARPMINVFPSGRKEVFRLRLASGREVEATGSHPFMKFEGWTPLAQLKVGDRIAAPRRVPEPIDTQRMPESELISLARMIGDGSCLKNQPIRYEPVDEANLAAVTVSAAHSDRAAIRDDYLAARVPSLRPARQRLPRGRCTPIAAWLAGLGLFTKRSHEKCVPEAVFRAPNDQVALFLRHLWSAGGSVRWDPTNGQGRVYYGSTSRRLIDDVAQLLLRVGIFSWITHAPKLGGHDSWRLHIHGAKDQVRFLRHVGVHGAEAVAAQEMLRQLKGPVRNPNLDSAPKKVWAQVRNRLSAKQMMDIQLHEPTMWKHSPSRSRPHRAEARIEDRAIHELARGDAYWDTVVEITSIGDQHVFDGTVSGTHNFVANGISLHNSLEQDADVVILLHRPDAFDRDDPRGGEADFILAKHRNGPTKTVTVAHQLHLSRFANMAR
As to the kind of experiment: DnaB intein splicing inhibitors, dose response, biochemical, cell-free fluorescence (AID 449749). It counts as functional.

Test [9] deals with HEK293. Put plainly: cells. To be noted: Homo sapiens.
Test [10] has as its system HEK293. Put plainly: cells. Conditions: Homo sapiens. The source holds these as a separate data set.
Test [11] in a line: Shn3 3'UTR reporter inhibitors, dose response, cell-based, Clone20 osteoblasts, firefly luciferase, cherry-picked (AID 624132).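 Note: firefly luciferase luminescence from reporter carrying the Shn3 3'UTR in osteoblasts.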 In kind it is functional.
A short description of test [12]: control 3'UTR Renilla luciferase suppression, dose response, counter-screen for Shn3 inhibitor project, cell-based, Clone20-Shn3RL, cherry-picked (AID 624133). It counts as functional.
A short description of test [13]: cytotoxicity in HMLE control line with eGFP shRNA, dose response, counter-screen for HMLE_sh_ECad selective toxicity project, cell-based, HMLE_sh_eGFP, luminescence (AID 463074).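 Note: HMLE human mammary epithelial cells expressing control shRNA against eGFP.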 It counts as functional, Homo sapiens.
The nature of test [14]: Luminescence Cell-Based Dose Retest to Confirm Inhibitors of Cancer Stem Cells. [Related pubchem assays (depositor defined):AID2717, AID2721]. It counts as functional. Conditions: Homo sapiens.
Test [15] concerns the target T5, Heat shock factor protein 1 (Mus musculus, UniProt P38532).
T5 sequence (P38532 whole entry): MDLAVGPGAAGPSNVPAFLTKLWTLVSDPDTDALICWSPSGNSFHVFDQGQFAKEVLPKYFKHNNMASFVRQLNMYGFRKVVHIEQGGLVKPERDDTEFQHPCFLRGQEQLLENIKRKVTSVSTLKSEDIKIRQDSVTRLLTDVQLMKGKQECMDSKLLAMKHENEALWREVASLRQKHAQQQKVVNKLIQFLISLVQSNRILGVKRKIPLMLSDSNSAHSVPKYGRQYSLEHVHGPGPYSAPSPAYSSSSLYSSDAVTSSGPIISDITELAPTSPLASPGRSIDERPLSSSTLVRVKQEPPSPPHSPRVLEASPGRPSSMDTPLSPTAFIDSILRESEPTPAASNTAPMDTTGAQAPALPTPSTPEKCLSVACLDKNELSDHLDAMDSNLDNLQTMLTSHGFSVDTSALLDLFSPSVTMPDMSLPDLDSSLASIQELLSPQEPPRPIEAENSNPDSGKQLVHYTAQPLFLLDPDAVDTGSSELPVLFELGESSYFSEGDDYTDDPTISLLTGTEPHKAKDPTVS
As to the kind of experiment: inhibition of MG132-induced HSE-luciferase signal, confirmation, cell-based, NIH3T3, luminescence, dose retest (AID 2382).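 Note: NIH3T3 fibroblasts with HSF1-driven luciferase reporter stressed by proteasome inhibitor MG132; luminescence from HSF1-driven luciferase expression after 8 hours of MG132 stress.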 In kind it is functional.

FAD-linked sulfhydryl oxidase ALR, sequence (P55789 whole entry): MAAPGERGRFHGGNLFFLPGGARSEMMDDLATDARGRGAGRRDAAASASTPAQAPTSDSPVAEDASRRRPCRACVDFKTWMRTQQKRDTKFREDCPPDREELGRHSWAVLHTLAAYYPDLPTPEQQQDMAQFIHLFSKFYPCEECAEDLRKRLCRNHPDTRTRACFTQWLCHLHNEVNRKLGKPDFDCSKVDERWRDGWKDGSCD

Consider `COCCNCC(=O)Nc1nc(C)cs1`, for which the IC50 in test [1] is 105 µM (active); at Coagulation factor XII, > 50 µM (inactive).

For the molecule `CCc1c(C)nc2ncnn2c1N1CCC(C(=O)Nc2ccccc2)CC1`, the IC50 on Coagulation factor XII is > 50 µM (inactive).

For `CCNc1ccc2c(Cl)cc(=O)oc2c1`, the IC50 at Coagulation factor XII is > 50 µM (inactive).

With `Sc1nnc(-c2cc(-c3ccco3)[nH]n2)n1-c1ccccc1`, the EC50 in test [2] is > 79.4 µM (not active); in [3], > 79.4 µM (inactive); in test [4], > 79.4 µM (not active).

Regarding `COc1cc(/N=C/c2c(CO)cnc(C)c2O)cc(OC)c1OC`, the IC50 in [5] was > 80 µM (inactive). Besides, in test [6], the AC50 is 3.63 µM (active).

Take `O=C(NCc1ccccc1)c1nc(S(=O)(=O)Cc2ccccc2)ncc1Cl`: the 50% effective concentration (EC50) on Protein RecA is 4.88 µM (active); with HEK293 [9] it was > 2.21 µM (active); in the test on HEK293 [10], > 59.6 µM (inactive). For the same molecule, the AC50 in test [7] was 20.4 µM (active); in [8] it was 2.72 µM (active); in test [11], 1.19 µM (active); in test [12], 10.8 µM (active).

`COCCNC(=S)Nc1ccc(N2CCOCC2)c(S(=O)(=O)Nc2ccc(Cl)cc2)c1`: the IC50 in test [5] was > 80 µM (inactive).

For `CCSc1cnn(-c2ccccc2)c(=O)c1SCC`, the results for the EC50 in [2], in test [3] and in test [4] were > 79.4 µM (not active), 54.2 µM (inactive) and 7.53 µM (active), respectively.

For the molecule `Cc1ccc(NC(=O)CSc2nnc([C@H](C)NC(=O)OC(C)(C)C)o2)c(C)c1`, the IC50 on Coagulation factor XII was > 50 µM (inactive).

For `c1ccc2c(Nc3nc(-c4ccncc4)nc4ccccc34)cccc2c1`, the AC50 in test [13] is 34 µM (active); in test [14] it was 18.7 µM (active). Also, the EC50 in test [15] is listed as > 195 µM (not active).

Regarding `NC(=O)C1=CC2C3C=CC2(O)C(=O)OC3O1` (stereo not given), the EC50 with HEK293 [9] and in the test with HEK293 [10] was > 59.7 µM (inactive) in each case.

For the molecule `CC(C)(C)c1ccc(Cn2nnc3c(O)nc(C4CCN(C(=O)Cc5cccs5)CC4)nc32)cc1`, the EC50 with HEK293 [9] and with HEK293 [10] was > 59.7 µM (inactive) throughout.

As to `COC(=O)c1sccc1NS(=O)(=O)c1ccc(OC)cc1`, the figures for the AC50 in test [13] and in test [14] were 28.2 µM (active) and 21.4 µM (active), respectively.
